Results reported in publication PMC6199744, “Development of Chemical Proteomics for the Folateome and Analysis of the Kinetoplastid Folateome” (ACS Infectious Diseases, 2018).
Where two headings read alike, the source gives them in different places.

Key:
Type in all cases: binding
[1] = target: T1, HeLa cell extract proteins (Homo sapiens, UniProt Q9NQX3)
T1 construct: endogenous in cells; host or cells: HeLa cell extract
T1 sequence (Q9NQX3 1-736): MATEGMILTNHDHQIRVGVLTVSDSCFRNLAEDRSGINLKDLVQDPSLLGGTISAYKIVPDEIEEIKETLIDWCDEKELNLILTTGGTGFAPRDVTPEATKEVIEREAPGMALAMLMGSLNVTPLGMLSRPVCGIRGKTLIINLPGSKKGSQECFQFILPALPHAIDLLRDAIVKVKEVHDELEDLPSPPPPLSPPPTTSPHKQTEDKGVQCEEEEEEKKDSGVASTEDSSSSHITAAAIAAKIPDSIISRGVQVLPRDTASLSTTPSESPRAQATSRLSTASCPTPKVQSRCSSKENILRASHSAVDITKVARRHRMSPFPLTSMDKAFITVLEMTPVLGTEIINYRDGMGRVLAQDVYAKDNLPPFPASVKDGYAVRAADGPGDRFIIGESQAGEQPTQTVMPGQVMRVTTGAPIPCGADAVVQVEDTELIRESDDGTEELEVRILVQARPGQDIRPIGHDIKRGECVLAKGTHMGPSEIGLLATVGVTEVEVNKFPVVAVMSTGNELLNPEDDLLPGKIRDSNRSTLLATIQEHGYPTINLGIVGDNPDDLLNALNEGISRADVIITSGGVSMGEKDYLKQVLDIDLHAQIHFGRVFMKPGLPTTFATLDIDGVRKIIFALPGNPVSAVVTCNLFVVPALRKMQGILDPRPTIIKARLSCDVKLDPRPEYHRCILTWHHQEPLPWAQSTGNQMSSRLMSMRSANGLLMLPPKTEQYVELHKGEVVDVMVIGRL

[2] = target: T2, HeLa cell extract proteins (Homo sapiens, UniProt P00367)
T2 construct: endogenous in cells; host or cells: HeLa cell extract
T2 sequence (P00367 54-558): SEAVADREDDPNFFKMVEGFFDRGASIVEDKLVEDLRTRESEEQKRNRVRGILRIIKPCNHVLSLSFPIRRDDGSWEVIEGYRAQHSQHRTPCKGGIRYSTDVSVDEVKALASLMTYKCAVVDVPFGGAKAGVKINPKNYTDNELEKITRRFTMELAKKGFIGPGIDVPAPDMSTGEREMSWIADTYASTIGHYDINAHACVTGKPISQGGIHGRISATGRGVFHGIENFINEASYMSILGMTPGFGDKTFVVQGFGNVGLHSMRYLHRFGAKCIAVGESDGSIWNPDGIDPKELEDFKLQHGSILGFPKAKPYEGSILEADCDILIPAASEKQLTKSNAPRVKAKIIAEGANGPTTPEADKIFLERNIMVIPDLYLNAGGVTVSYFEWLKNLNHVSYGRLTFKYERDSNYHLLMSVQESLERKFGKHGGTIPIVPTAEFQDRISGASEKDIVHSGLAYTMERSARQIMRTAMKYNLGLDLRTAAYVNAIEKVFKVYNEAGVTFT

[3] = target: T3, HeLa cell extract proteins (Homo sapiens, UniProt P07686)
T3 construct: endogenous in cells; host or cells: HeLa cell extract
T3 sequence (P07686 122-556): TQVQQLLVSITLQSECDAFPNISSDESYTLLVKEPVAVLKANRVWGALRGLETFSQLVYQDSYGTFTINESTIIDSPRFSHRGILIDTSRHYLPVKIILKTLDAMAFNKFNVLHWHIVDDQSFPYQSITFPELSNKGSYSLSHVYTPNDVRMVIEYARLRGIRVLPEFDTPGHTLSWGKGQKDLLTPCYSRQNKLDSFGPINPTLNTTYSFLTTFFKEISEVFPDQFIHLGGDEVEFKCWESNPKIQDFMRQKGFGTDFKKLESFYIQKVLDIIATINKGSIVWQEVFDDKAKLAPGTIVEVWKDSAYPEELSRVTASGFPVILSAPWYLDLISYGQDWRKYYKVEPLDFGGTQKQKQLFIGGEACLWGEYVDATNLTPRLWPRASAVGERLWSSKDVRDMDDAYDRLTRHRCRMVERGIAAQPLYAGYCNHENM

[4] = target: T4, HeLa cell extract proteins (Homo sapiens, UniProt P53701)
T4 construct: endogenous in cells; host or cells: HeLa cell extract
T4 sequence (P53701 1-268): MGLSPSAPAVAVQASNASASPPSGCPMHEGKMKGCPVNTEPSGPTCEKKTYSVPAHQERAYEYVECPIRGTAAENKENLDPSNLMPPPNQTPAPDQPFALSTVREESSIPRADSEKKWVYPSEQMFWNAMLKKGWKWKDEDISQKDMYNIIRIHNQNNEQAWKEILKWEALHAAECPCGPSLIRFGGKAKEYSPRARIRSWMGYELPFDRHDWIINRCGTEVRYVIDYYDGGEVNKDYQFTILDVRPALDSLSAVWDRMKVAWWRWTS

[5] = target: T5, HeLa cell extract proteins (Homo sapiens, UniProt P31153)
T5 construct: endogenous in cells; host or cells: HeLa cell extract
T5 sequence (P31153 whole entry): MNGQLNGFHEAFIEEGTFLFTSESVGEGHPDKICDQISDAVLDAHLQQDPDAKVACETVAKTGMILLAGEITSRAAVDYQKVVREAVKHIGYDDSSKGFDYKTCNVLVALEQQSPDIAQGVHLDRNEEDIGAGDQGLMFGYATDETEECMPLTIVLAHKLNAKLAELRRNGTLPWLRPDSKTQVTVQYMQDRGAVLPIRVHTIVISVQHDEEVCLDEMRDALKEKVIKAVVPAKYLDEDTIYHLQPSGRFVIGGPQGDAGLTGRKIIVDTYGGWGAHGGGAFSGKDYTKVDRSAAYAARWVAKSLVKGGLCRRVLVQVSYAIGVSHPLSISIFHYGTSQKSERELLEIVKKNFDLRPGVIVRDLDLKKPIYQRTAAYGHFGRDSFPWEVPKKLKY

[6] = target: T6, HeLa cell extract proteins (Homo sapiens, UniProt O43592)
T6 construct: endogenous in cells; host or cells: HeLa cell extract
T6 sequence (O43592 1-962): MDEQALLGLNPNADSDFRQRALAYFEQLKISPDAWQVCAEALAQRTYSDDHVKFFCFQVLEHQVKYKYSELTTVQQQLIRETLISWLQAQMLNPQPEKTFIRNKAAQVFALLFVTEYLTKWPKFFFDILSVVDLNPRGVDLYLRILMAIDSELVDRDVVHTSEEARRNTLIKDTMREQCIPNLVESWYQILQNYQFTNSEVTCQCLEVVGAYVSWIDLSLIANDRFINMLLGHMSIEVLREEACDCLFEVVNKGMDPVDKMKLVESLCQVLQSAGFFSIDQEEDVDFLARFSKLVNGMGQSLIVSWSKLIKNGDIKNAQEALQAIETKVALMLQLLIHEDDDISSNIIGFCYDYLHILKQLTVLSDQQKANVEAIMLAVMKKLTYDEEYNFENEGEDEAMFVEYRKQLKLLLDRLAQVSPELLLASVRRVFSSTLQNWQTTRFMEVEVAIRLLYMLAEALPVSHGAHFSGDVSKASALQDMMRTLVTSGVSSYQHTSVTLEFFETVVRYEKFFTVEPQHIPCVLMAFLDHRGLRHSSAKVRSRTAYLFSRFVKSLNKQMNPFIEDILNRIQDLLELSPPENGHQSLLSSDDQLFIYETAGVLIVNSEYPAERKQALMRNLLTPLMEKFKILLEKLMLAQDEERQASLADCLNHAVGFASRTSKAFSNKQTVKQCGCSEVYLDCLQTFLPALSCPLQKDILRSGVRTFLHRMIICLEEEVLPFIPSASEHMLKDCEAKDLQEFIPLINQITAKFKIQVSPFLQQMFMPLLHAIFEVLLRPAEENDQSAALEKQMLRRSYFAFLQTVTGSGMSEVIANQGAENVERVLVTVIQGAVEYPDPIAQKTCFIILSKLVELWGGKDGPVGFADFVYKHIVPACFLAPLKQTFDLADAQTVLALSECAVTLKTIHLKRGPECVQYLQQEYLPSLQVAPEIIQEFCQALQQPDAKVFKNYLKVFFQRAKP

[7] = target: T7, HeLa cell extract proteins (Homo sapiens, UniProt P54819)
T7 construct: endogenous in cells; host or cells: HeLa cell extract

[8] = target: T8, HeLa cell extract proteins (Homo sapiens, UniProt P62826)
T8 construct: endogenous in cells; host or cells: HeLa cell extract

| Structure (SMILES) | fold changes relative to vehicle control ([1]; protein GPHN, HeLa) | fold changes relative to vehicle control ([2]; protein GLUD1, HeLa) | fold changes relative to vehicle control ([3]; HeLa, protein HEXB) | fold changes relative to vehicle control ([4]; HeLa, protein HCCS) | fold changes relative to vehicle control ([5]; protein MAT2A, HeLa) | fold changes relative to vehicle control ([6]; HeLa, protein XPOT) | fold changes relative to vehicle control ([7]; captured protein AK2, HeLa) | fold changes relative to vehicle control ([8]; protein RAN, HeLa) | fold changes relative to vehicle control ([1]; HeLa, captured protein GPHN) | fold changes relative to vehicle control ([2]; HeLa, protein GLUD1) | fold changes relative to vehicle control ([5]; HeLa, protein MAT2A) | fold changes relative to vehicle control ([7]; protein AK2, HeLa) | fold changes relative to vehicle control ([8]; HeLa, protein RAN) | other results |
| --- | --- | --- | --- | --- | --- | --- | --- | --- | --- | --- | --- | --- | --- | --- |
| CCCCCCOc1cccc(Cc2cnc(N)nc2N)c1 [compound 2] | 0.93 | 1.33 | 1.06 | 0.9 | 1.55 | 1.02 | 1 | 1.8 |  |  |  |  |  |  |
| NCCOCCOCC(=O)Nc1nc2ncc(CNc3ccc(C(=O)NC(CCC(=O)O)C(=O)O)cc3)nc2c(=O)[nH]1 (centres unmarked) [compound 6] |  |  | 1.05 | 0.75 |  | 0.94 |  |  | 0.99 | 1.07 | 1.16 | 0.95 | 1.11 |  |
| CCCCCCOc1ccc(Cc2cnc(N)nc2N)cc1 [compound 1] | 0.94 | 1.09 | 1.04 | 0.84 | 1.21 | 0.95 | 1.04 | 1.1 |  |  |  |  |  |  |
| Nc1nc2c(c(=O)[nH]1)N(C=O)C(CNc1ccc(C(=O)N[C@@H](CCC(=O)O)C(=O)O)cc1)CN2 (some centres unmarked) [LEU, leucovorin] |  |  | 0.97 | 0.88 |  | 0.94 |  |  | 0.81 | 1.06 | 0.99 | 0.99 | 0.98 |  |
| NCCCNc1ccc(C(=O)NC(CCC(=O)O)C(=O)O)cc1 (centres unmarked) [compound 7] |  |  | 1.06 | 0.98 |  | 0.99 |  |  | 1.03 | 0.97 | 1 | 1.08 | 0.95 |  |
| Nc1nc2[nH]cc(CCc3ccc(C(=O)N[C@@H](CCC(=O)O)C(=O)O)cc3)c2c(=O)[nH]1 [PTX, pemetrexed] |  |  |  |  |  |  |  |  |  |  |  |  |  | fold changes relative to vehicle control [1]: 0.83; fold changes relative to vehicle control [2]: 1.01; fold changes relative to vehicle control [3]: 1; fold changes relative to vehicle control [4]: 0.88; fold changes relative to vehicle control [5]: 1.07; fold changes relative to vehicle control [6]: 0.84; fold changes relative to vehicle control [7]: 0.86; fold changes relative to vehicle control [8]: 1 |
| Nc1nc2cccc(-c3ccccc3)c2n1Cc1ccc(Cl)c(Cl)c1 [compound 3] | 0.96 | 0.92 | 0.93 | 0.96 | 1.01 | 1.08 | 0.91 | 0.93 |  |  |  |  |  |  |
